Test results published in patent publication US20200024246A1, “POGOSTONE DERIVATIVES AND METHODS OF USING THE SAME” (Hamyard Associates LLC, priority 2018, published 2020).
In brackets after ≈: the same amount, converted by molar mass. Several values for one entry are separate records, joined by “and”; a condition that tells them apart may be missing. Equal values may be shown once.

Key:
corn seeds = assay: Seed treatment testing: survival/germination of treated corn seeds (FIG. 2B); format: in vivo; conditions: seeds coated with compound; 1 week after introduction of larvae
Description: (§1) Corn seeds used were a non-transgenic type strain of corn to prevent confounding results. Germination typically occurred between 2-4 days after moistening.
(§2) Seed coating was accomplished by placing 20 g of corn seeds or soybeans into a container with approximately 1 mL of a 1:5 Elmer's glue:water solution with a small amount of Triton-X100™ (present 100 μL/5 mL). For solid compounds, 0.25 g of compound was subsequently introduced into the container. This mixture of seeds, Elmer's Glue/water/Triton-X 100™ solution, and active compound was mixed thoroughly until seeds were coated with the active ingredient.
(§3) For each treatment, 0.25 g of liquid compound was dissolved in 5 mL of hexane. 0.25 g of Hi-Sil 233 silica gel was introduced into this mixture of hexane and active ingredient. The solvent was blown-off using a rotary evaporator, allowing for the compound to adsorb to the silica gel. This 0.5 g of silica gel:active ingredient was then used as the solid material used for coating the seeds. The seeds were then coated with the same method used for solid compound.
(§4) Three corn seeds coated in pogostone derivative treatments were germinated in small, 2-oz. […] Germination of seedlings was also recorded at the end of the assay by counting the total number of seeds that produced roots out of the 3 seeds in each container/replicate and recorded as total percentage germination. […]

adult, female mosquitoes = assay: Topical application on adult female mosquitoes (24-h mortality, 1-h knockdown); format: in vivo, mosquito
adult flies = assay: Contact toxicity on treated filter paper; format: in vivo; conditions: filter paper treated with 1 mL in acetone; 24 hours
Description: Filter papers were treated with 1 mL of the disclosed compounds in acetone at varying concentrations, and the filter papers were placed in a dish. Ten adult flies were added to each dish and a sugar pad was added to each dish to ensure that any mortality could be attributed to the compound instead of starvation. Mortality was assessed at 24 hours.

[1] = test system: Western corn rootworm larvae; assay: Seed treatment testing: rootworm survival (FIG. 2A); format: in vivo; conditions: seeds coated with compound; 1 week after introduction of larvae
Description: as §1, §2, §3, §4

adult female mosquitoes = assay: whole plant or invertebrate; conditions: for 1-hour Knockdown EC50 (μg/g mosquito) / LD50: topical; for LD50: 24 h, read-out: 24-hour Mortality LD50 (μg/g mosquito)
Description: The first group of DHAA-based derivatives that were tested included Formula A2, Formula B3, Formula C3, and Formula D3. A solution of 0.5% or 1.5% of each of these compounds was applied to the mosquitoes, as described above. […] Acetone was used as a control.

[2] = test system: 3-4 instar Aedes aegypti larvae; assay: Mosquito larvicide bioassay; format: in vivo; conditions: Aedes aegypti, 24 h
Description: Mosquito larvicide bioassays were performed by introducing various concentrations of test compounds (pyrone derivatives and rotenone) into acetone at various concentrations. 200 uL of these solutions were added to individual cups containing 10, 3-4 instar Aedes aegypti larvae and 25 mL of DI water. 2 mg of Tetramin™ was provided to each cup as a food source. […] Ataxia was used as the indicator of larval mortality. At least 5 concentrations were used which caused between 10 and 90% mortality. LC50 values were calculated using a PROC PROBIT model in SAS 9.4.

[3] = test system: Dandelion (Taraxacum officinale); assay: Soil drench herbicidal test, dandelion; format: in vivo; conditions: Dandelion; 2 weeks after soil drench - 40 mL of 0.5% solution; Rep 1 and 2
Description: Dandelion (Taraxacum officinale) seeds were obtained from the Department of Agronomy at Iowa State University. Individual seeds were sown for each pot (6″ wide×4.5″ deep) with approximately 800 mL of soil for each plan. Only plants that germinated were used for the study. Plants were treated 1-2 weeks post emergence. Plants were watered every 2-3 days as needed. Giant foxtail (Setaria faberi) seeds were obtained from the Department of Agronomy at Iowa State University. Three seeds were sown for each pot (6″ wide×4.5″ deep) with approximately 800 mL of soil for each plan. Only plants that germinated were used for the study. Plants were treated 1-2 weeks post emergence. Plants were watered every 2-3 days as needed.
Formulations of the various active ingredients were created using the disclosed pogostone derivatives and Triton-X 100 to aid in the solvation of the active ingredient. Formulations consisted of 0.5% active ingredient by weight. […] 40 mL of formulation ([…] active ingredient) was applied to each pot containing approximately 3-5 plants per pot at 2-3 weeks after emergence. Observations were performed 3 days and 2 weeks after soil drench to determine the effects of the treatments on the various types and stages of plants. […]

soybean aphids = assay: Soybean aphid leaf dip assay for DHAA-based derivatives; format: in vivo; conditions: 24 hours
Description: Isolated soybean leaves were dipped into a pyrone solution containing either 0.5% or 1.5% of select DHAA-based derivatives. The leaves were allowed to dry for 30 minutes, and then place in a dish. Ten soybean aphids were placed on each leaf. Mortality was assessed at 24 hours.

house flies = assay: Knockdown and mortality of DHAA-based derivatives on house flies; format: in vivo, house fly
From the text: Accordingly, further derivatives with structures similar to Formula C3 were synthesized and tested for knockdown potential and mortality in house flies and mosquitoes using an experimental design similar to the one described above. These compounds include Formula C5, Formula C6, Formula C7, Formula C8, Formula C9, and Formula C10.

Compound: Cc1cc(O)c(C(=O)CCC(C)C)c(=O)o1 [Pogostone, 3-(4-Methylpentanoyl)-4-hydroxy-2H]
- phytotoxicity to treated corn seeds (corn seeds): Significant phytotoxicity
- ED50 (adult, female mosquitoes; Mosquito Knockdown Properties (1 hour), topical application, read-out: KD50 (ug/g mosquito)): 18.4 mg/kg
- LD50 (adult, female mosquitoes; Mosquito Toxicity (24 hours), topical application to pronotum, read-out: LD50 (ug/g mosquito)): 388 mg/kg
- percent mortality, 0.10% Concentration (adult flies): 95%
- percent mortality, 0.25% Concentration (adult flies): 100%
- percent mortality, 0.50% Concentration (adult flies): 100%
- western corn rootworm mortality [1]: significant western corn rootworm mortality
- 1-hour Knockdown EC50 (μg/g mosquito) (adult female mosquitoes): 95.2 μg/g mosquito
- LD50 (adult female mosquitoes): 262 mg/kg
- LC50 [2]: 18.3 µg/mL (≈ 81.6 µM)

Compound: O=C(O)COc1ccc(Cl)cc1Cl [2,4-D, 2,4-dichlorophenoxyacetic acid]
- % mortality [3]: 100% and 80%

Compound: Cc1cc(O)c(C(=O)CC(O)C(C)C)c(=O)o1 (stereo not drawn) [Formula C10]
- soybean aphids dead (soybean aphids; leaf dipped in 0.5% solution): Roughly 67%
- soybean aphids dead (soybean aphids; leaf dipped in 1.5% solution): Roughly 90%
- percent mortality, 0.10% Concentration (adult flies): 15%
- percent mortality, 0.25% Concentration (adult flies): 0%
- percent mortality, 0.50% Concentration (adult flies): 45%
- Mosquito Knockdown at 0.5% concentration (adult female mosquitoes; 0.5% concentration): 100%
- Mosquito Mortality at 0.5% concentration (adult female mosquitoes; 0.5% concentration): 100%
- Mosquito Knockdown at 1.5% concentration (adult female mosquitoes; 1.5% concentration): 100%
- Mosquito Mortality at 1.5% concentration (adult female mosquitoes; 1.5% concentration): 100%
- 1-hour Knockdown EC50 (μg/g mosquito) (adult female mosquitoes): 49 μg/g mosquito
- LD50 (adult female mosquitoes): 29 mg/kg
- ranking in knockdown and mortality screenings (adult female mosquitoes; words): performed the best in the initial knockdown and mortality screenings
- House Fly Knockdown at 0.5% concentration (house flies; 0.5% concentration): 52.5%
- House Fly Mortality at 0.5% concentration (house flies; 0.5% concentration): 23%
- House Fly Knockdown at 1.5% concentration (house flies; 1.5% concentration): 64%
- House Fly Mortality at 1.5% concentration (house flies; 1.5% concentration): 24%
